Assay results: US20240365781A1, “SYNERGISTICALLY EFFECTIVE HERBICIDE COMPOSITION COMPRISING PELARGONIC ACID AND FLAZASULFURON” (Belchim Crop Protection NV, priority 2017, published 2024)

Tests used:
Test in all cases: post-emergence field trial under rows of vines, 150-200 L water/ha (Examples 6-9)
Type in all cases: in vivo
Amaranthus retroflexus = conditions: flazasulfuron 40 g/ha
Text: (§1) The expected activity of a given combination of two or three herbicides can be calculated as follows according to a calculation method by Colby (cf. COLBY, S. R.: “Calculating synergistic and antagonistic responses of herbicide combinations”, • Weeds 15, pages 20-22, 1967): • If X=% damage by herbicide (A) at an application rate of m g/ha, • Y=% damage by herbicide (B) at an application rate of n g/ha, • E=the expected damage by herbicides (A) and (B) at application rates of m and n […] and, • then for a combination:
(§2) Individual compositions comprising pelargonic acid or flazasulfuron are compared with a herbicide composition according to the invention comprising pelargonic acid and flazasulfuron.
(§3) Herbicidal activity was determined by performing a post-emergence test. […] The corresponding mixture was in the form of a spray solution. Besides, spray solutions of individual compositions comprising pelargonic acid or flazasulfuron were used.
(§4) The spray solution was applied on plants of unwanted vegetation present on fields where perennial crops were grown.
(§5) After 5 to 88 days after application of the spray solution, the degree of damage to the unwanted vegetation is rated in % of plants of unwanted vegetation that were killed. Tests were performed on test fields (field trials).

Chenopodium album = conditions: flazasulfuron 40 g/ha
Text: as §1, §2, §3, §4, §5

[1] = tested on: Digitaria sanguinalis and Setaria pumila; conditions: flazasulfuron 40 g/ha
Text: as §1, §2, §3, §4, §5

Digitaria sanguinalis = conditions: flazasulfuron 40 g/ha
Text: as §1, §2, §3, §4, §5

Epilobium tetragonum = conditions: flazasulfuron 40 g/ha
Text: as §1, §2, §3, §4, §5

Erigeron sumatrensis = conditions: flazasulfuron 40 g/ha
Text: as §1, §2, §3, §4, §5

Geranium molle = conditions: 15 d, flazasulfuron 40 g/ha
Text: as §1, §2, §3, §4, §5

Oxalis latifolia = conditions: flazasulfuron 40 g/ha
Text: as §1, §2, §3, §4, §5

Sonchus oleracea = conditions: flazasulfuron 40 g/ha
Text: as §1, §2, §3, §4, §5

Stellaria media = conditions: flazasulfuron 40 g/ha
Text: as §1, §2, §3, §4, §5

Veronica persicae = conditions: flazasulfuron 40 g/ha
Text: as §1, §2, §3, §4, §5

[2] = 7 d, pelargonic acid 10880 g/ha
[3] = 14 d, pelargonic acid 5440 g/ha
[4] = 14 d, pelargonic acid 10880 g/ha
[5] = 31 d, pelargonic acid 5440 g/ha
[6] = 31 d, pelargonic acid 8160 g/ha
[7] = 31 d, pelargonic acid 10880 g/ha
[8] = 58 d, pelargonic acid 5440 g/ha
[9] = 58 d, pelargonic acid 6800 g/ha
[10] = 58 d, pelargonic acid 8160 g/ha
[11] = 58 d, pelargonic acid 10880 g/ha
[12] = 14 d, pelargonic acid 8160 g/ha
[13] = 28 d, pelargonic acid 5440 g/ha
[14] = 28 d, pelargonic acid 6800 g/ha
[15] = 28 d, pelargonic acid 8160 g/ha
[16] = 28 d, pelargonic acid 10880 g/ha
[17] = 14 d, pelargonic acid 6800 g/ha
[18] = 27 d, pelargonic acid 5440 g/ha
[19] = 27 d, pelargonic acid 6800 g/ha
[20] = 27 d, pelargonic acid 8160 g/ha
[21] = 27 d, pelargonic acid 10880 g/ha
[22] = 56 d, pelargonic acid 5440 g/ha
[23] = 56 d, pelargonic acid 6800 g/ha
[24] = 56 d, pelargonic acid 8160 g/ha
[25] = 56 d, pelargonic acid 10880 g/ha

COc1cc(OC)nc(NC(=O)NS(=O)(=O)c2ncccc2C(F)(F)F)n1 [Flazasulfuron, 1-(4,6-dimethoxypyrimidin-2-yl)-3-(3-trifluoromethyl-2-pyridylsulfonyl)urea]
herbicidal effect (Amaranthus retroflexus; 7 d, pelargonic acid 5440 g/ha): 23%
herbicidal effect (Amaranthus retroflexus; [2]): 23%
herbicidal effect (Amaranthus retroflexus; [3]): 23%
herbicidal effect (Amaranthus retroflexus; [4]): 23%
herbicidal effect (Amaranthus retroflexus; [5]): 53%
herbicidal effect (Amaranthus retroflexus; 31 d, pelargonic acid 6800 g/ha): 53%
herbicidal effect (Amaranthus retroflexus; [6]): 53%
herbicidal effect (Amaranthus retroflexus; [7]): 53%
herbicidal effect (Amaranthus retroflexus; [8]): 78%
herbicidal effect (Amaranthus retroflexus; [9]): 78%
herbicidal effect (Amaranthus retroflexus; [10]): 78%
herbicidal effect (Amaranthus retroflexus; [11]): 78%
herbicidal effect (Chenopodium album; 7 d, pelargonic acid 5440 g/ha): 23%
herbicidal effect (Chenopodium album; [2]): 23%
herbicidal effect (Chenopodium album; [3]): 25%
herbicidal effect (Chenopodium album; [4]): 25%
herbicidal effect (Chenopodium album; [5]): 53%
herbicidal effect (Chenopodium album; [6]): 53%
herbicidal effect (Chenopodium album; [7]): 53%
herbicidal effect (Chenopodium album; [8]): 65%
herbicidal effect (Chenopodium album; [9]): 65%
herbicidal effect (Chenopodium album; [10]): 65%
herbicidal effect (Chenopodium album; [11]): 65%
herbicidal effect ([1]; 7 d, pelargonic acid 5440 g/ha): 13%
herbicidal effect ([1]; 7 d, pelargonic acid 6800 g/ha): 13%
herbicidal effect ([1]; 7 d, pelargonic acid 8160 g/ha): 13%
herbicidal effect [1, 2]: 13%
herbicidal effect [1, 3]: 91%
herbicidal effect [1, 12]: 91%
herbicidal effect [1, 4]: 91%
herbicidal effect [1, 13]: 90%
herbicidal effect [1, 14]: 90%
herbicidal effect [1, 15]: 90%
herbicidal effect [1, 16]: 90%
herbicidal effect ([1]; 65 d, pelargonic acid 5440 g/ha): 98%
herbicidal effect ([1]; 65 d, pelargonic acid 8160 g/ha): 98%
herbicidal effect ([1]; 65 d, pelargonic acid 10880 g/ha): 98%
herbicidal effect (Digitaria sanguinalis; 7 d, pelargonic acid 5440 g/ha): 51%
herbicidal effect (Digitaria sanguinalis; 7 d, pelargonic acid 6800 g/ha): 51%
herbicidal effect (Digitaria sanguinalis; 7 d, pelargonic acid 8160 g/ha): 51%
herbicidal effect (Digitaria sanguinalis; [2]): 51%
herbicidal effect (Digitaria sanguinalis; [3]): 80%
herbicidal effect (Digitaria sanguinalis; [17]): 80%
herbicidal effect (Digitaria sanguinalis; [12]): 80%
herbicidal effect (Digitaria sanguinalis; [4]): 80%
herbicidal effect (Digitaria sanguinalis; [18]): 73%
herbicidal effect (Digitaria sanguinalis; [19]): 73%
herbicidal effect (Digitaria sanguinalis; [20]): 73%
herbicidal effect (Digitaria sanguinalis; [21]): 73%
herbicidal effect (Digitaria sanguinalis; [22]): 64%
herbicidal effect (Digitaria sanguinalis; [23]): 64%
herbicidal effect (Digitaria sanguinalis; [24]): 64%
herbicidal effect (Digitaria sanguinalis; [25]): 64%
herbicidal effect (Epilobium tetragonum; 7 d, pelargonic acid 5440 g/ha): 61%
herbicidal effect (Epilobium tetragonum; 7 d, pelargonic acid 8160 g/ha): 61%
herbicidal effect (Epilobium tetragonum; [2]): 61%
herbicidal effect (Epilobium tetragonum; [17]): 96%
herbicidal effect (Epilobium tetragonum; [12]): 96%
herbicidal effect (Epilobium tetragonum; [4]): 96%
herbicidal effect (Epilobium tetragonum; [19]): 96%
herbicidal effect (Epilobium tetragonum; [20]): 96%
herbicidal effect (Epilobium tetragonum; [21]): 96%
herbicidal effect (Epilobium tetragonum; [23]): 96%
herbicidal effect (Epilobium tetragonum; [24]): 96%
herbicidal effect (Epilobium tetragonum; [25]): 96%
herbicidal effect (Erigeron sumatrensis; 5 d, pelargonic acid 5440 g/ha): 18%
herbicidal effect (Erigeron sumatrensis; 5 d, pelargonic acid 8160 g/ha): 18%
herbicidal effect (Erigeron sumatrensis; 15 d, pelargonic acid 5440 g/ha): 98%
herbicidal effect (Erigeron sumatrensis; 15 d, pelargonic acid 6800 g/ha): 98%
herbicidal effect (Erigeron sumatrensis; 15 d, pelargonic acid 8160 g/ha): 98%
herbicidal effect (Geranium molle; pelargonic acid 5440 g/ha): 63%
herbicidal effect (Geranium molle; pelargonic acid 6800 g/ha): 63%
herbicidal effect (Geranium molle; pelargonic acid 8160 g/ha): 63%
herbicidal effect (Geranium molle; pelargonic acid 10880 g/ha): 63%
herbicidal effect (Oxalis latifolia; 7 d, pelargonic acid 6800 g/ha): 29%
herbicidal effect (Oxalis latifolia; 7 d, pelargonic acid 8160 g/ha): 29%
herbicidal effect (Oxalis latifolia; [2]): 29%
herbicidal effect (Oxalis latifolia; [3]): 49%
herbicidal effect (Oxalis latifolia; [17]): 49%
herbicidal effect (Oxalis latifolia; [12]): 49%
herbicidal effect (Oxalis latifolia; [4]): 49%
herbicidal effect (Oxalis latifolia; [14]): 44%
herbicidal effect (Sonchus oleracea; [3]): 75%
herbicidal effect (Sonchus oleracea; [17]): 75%
herbicidal effect (Sonchus oleracea; [12]): 75%
herbicidal effect (Sonchus oleracea; [4]): 75%
herbicidal effect (Sonchus oleracea; [18]): 74%
herbicidal effect (Sonchus oleracea; [19]): 74%
herbicidal effect (Sonchus oleracea; [20]): 74%
herbicidal effect (Sonchus oleracea; [21]): 74%
herbicidal effect (Sonchus oleracea; [22]): 70%
herbicidal effect (Sonchus oleracea; [23]): 70%
herbicidal effect (Sonchus oleracea; [24]): 70%
herbicidal effect (Sonchus oleracea; [25]): 70%
herbicidal effect (Stellaria media; 7 d, pelargonic acid 8160 g/ha): 30%
herbicidal effect (Stellaria media; [2]): 30%
herbicidal effect (Stellaria media; [3]): 54%
herbicidal effect (Stellaria media; [17]): 54%
herbicidal effect (Stellaria media; [12]): 54%
herbicidal effect (Stellaria media; [4]): 54%
herbicidal effect (Stellaria media; [13]): 86%
herbicidal effect (Stellaria media; [14]): 86%
herbicidal effect (Stellaria media; [15]): 86%
herbicidal effect (Stellaria media; [16]): 86%
herbicidal effect (Veronica persicae; 7 d, pelargonic acid 5440 g/ha): 43%
herbicidal effect (Veronica persicae; 7 d, pelargonic acid 6800 g/ha): 43%
herbicidal effect (Veronica persicae; 7 d, pelargonic acid 8160 g/ha): 43%
herbicidal effect (Veronica persicae; [2]): 43%
herbicidal effect (Veronica persicae; [3]): 50%
herbicidal effect (Veronica persicae; [17]): 50%
herbicidal effect (Veronica persicae; [12]): 50%
herbicidal effect (Veronica persicae; [4]): 50%
herbicidal effect (Veronica persicae; [18]): 24%
herbicidal effect (Veronica persicae; [19]): 24%
herbicidal effect (Veronica persicae; [20]): 24%
herbicidal effect (Veronica persicae; [21]): 24%
herbicidal effect (Veronica persicae; [22]): 0%
herbicidal effect (Veronica persicae; [25]): 0%
